Laboratory results as given in patent publication US11414431B2, “Substituted pyrazolo[1,5-a]pyrimidines as TYK2 inhibitors” (Nimbus Lakshmi, Inc., priority 2018, dated 2022).

Tested on: IL-12 induced STAT4 phosphorlyation mediated by TYK2/JAK2
Assay: IL-12 Induced pSTAT4 in Human PBMC
Format: cell-based
Settings: 1.7 ng/mL IL-12 for 30 minutes
Description: Human PBMC were isolated from buffy coat and are stored frozen for assays as needed. […] 15 μL of compound or DMSO was added to the well at the desired concentrations and incubated at 1 hr at 37° C. 15 μL of stimulus (final concentration of 1.7 ng/mL IL-12) was added for 30 minutes prior to pSTAT4 and total STAT4 analysis using cell lysates prepared and analyzed by MSD reagents as per manufacturer protocol. The final DMSO concentration of compound in the assay was 0.1%.
The IL-12 induced pSTAT4 assay evaluates the inhibition of IL-12 induced STAT4 phosphorlyation mediated by TYK2/JAK2 (heterpdimeric complex).

| IC50 | IC50 (0.5 h) | Structure (SMILES) |
| --- | --- | --- |
| < 0.1 µM | – | CNc1cc(Nc2cccn([C@H]3CCCC[C@H]3O)c2=O)nc2c(C(=O)NC3CC[C@]3(C)OC)cnn12 (stereo partly drawn) [Compound I-423] |
| < 0.1 µM | – | CNc1cc(Nc2cccn(C3CCOCC3)c2=O)nc2c(C(=O)N[C@@H]3CCC3(F)F)cnn12 [Compound I-311] |
| < 0.1 µM | – | CNc1cc(-c2cnc3n([C@H]4COC[C@@H]4OC)cccc2-3)nc2c(C(=O)NC3CC[C@@H]3OC)cnn12 (stereo partly drawn) [Compound I-880] |
| < 0.1 µM | – | CNc1cc(Nc2cccn(C3COC3)c2=O)nc2c(C(=O)N[C@@H]3CCC3(F)F)cnn12 [Compound I-282] |
| < 0.1 µM | – | CNc1cc(-c2cn([C@H]3[C@@H]4COC[C@@H]43)c3ncccc23)nc2c(C(=O)N[C@H]3CC[C@@H]3OC)cnn12 [Compound I-793, 5-(1-((1R,5S,6r)-3-oxabicyclo[3.1.0]hexan-6-yl)-1H-pyrrolo[2,3-b]pyridin-3-yl)-N-((1S,2S)-2-methoxycyclobutyl)-7-(methylamino)pyrazolo[1,5-a]pyrimidine-3-carboxamide] |
| – | < 0.1 µM | CNc1cc(-c2cnc3n([C@H]4COC[C@@H]4O)cccc2-3)nc2c(C(=O)NC3CC[C@@H]3F)cnn12 (stereo partly drawn) [Compound I-826, N-((trans-1,2)-2-Fluorocyclobutyl)-5-(7-((3S,4R)-4-hydroxytetrahydrofuran-3-yl)-7H-pyrrolo[2,3-b]pyridin-3-yl)-7-(methylamino)pyrazolo[1,5-a]pyrimidine-3-carboxamide] |
| 0.1 to 0.5 µM | – | CNc1cc(-c2cn(CC(=O)N3CCCC3)c3ncccc23)nc2c(C(=O)NC3CC[C@@H]3OC)cnn12 (stereo partly drawn) [Compound I-931] |
| < 0.1 µM | – | CNc1cc(Nc2cccn(-c3ccccn3)c2=O)nc2c(C(=O)NC3CCC3(F)F)cnn12 (stereo not drawn) [Compound I-318] |
| 0.1 to 0.5 µM | – | CNc1cc(-c2cn([C@H]3CCOC[C@@H]3F)c3ncccc23)nc2c(C(=O)N[C@H]3CC[C@H]3O)cnn12 [Compound I-916] |
| < 0.1 µM | – | CNc1cc(-c2cn([C@H]3C[C@@H](O)C3)c3ncccc23)nc2c(C(=O)NC3CCC3(F)F)cnn12 (stereo partly drawn) [Compound I-677] |
| < 0.1 µM | – | CNc1cc(-c2cn([C@H]3COC[C@@H]3OC)c3ncccc23)nc2c(C(=O)N[C@H]3CC[C@@H]3F)cnn12 [Compound I-523] |
| < 0.1 µM | – | CNc1cc(Nc2cccn([C@H]3C[C@H](OC)C3)c2=O)nc2c(C(=O)N[C@H]3CC[C@@H]3OC)cnn12 [Compound I-255] |
| < 0.1 µM | – | CNc1cc(Nc2cccn([C@H]3CCC[C@@H](C#N)C3)c2=O)nc2c(C(=O)NC3CCC3(F)F)cnn12 (stereo partly drawn) [Compound I-330] |
| < 0.1 µM | – | CNc1cc(Nc2cccn([C@H]3C[C@H](OC)C3)c2=O)nc2c(C(=O)N[C@@H]3CC[C@H]3F)cnn12 [Compound I-178] |
| < 0.1 µM | – | CNc1cc(-c2cnc3n([C@@H]4COC[C@H]4O)cccc2-3)nc2c(C(=O)N[C@H]3CCC3(F)F)cnn12 [Compound I-902] |
| – | < 0.1 µM | CNc1cc(-c2cn([C@H]3[C@@H]4COC[C@@H]43)c3ncccc23)nc2c(C(=O)NC3CC[C@@H]3OC)cnn12 (stereo partly drawn) [Compound I-792, 5-(1-((1R,5S,6r)-3-oxabicyclo[3.1.0]hexan-6-yl)-1H-pyrrolo[2,3-b]pyridin-3-yl)-N-((trans-1,2)-2-methoxycyclobutyl)-7-(methylamino)pyrazolo[1,5-a]pyrimidine-3-carboxamide] |
| 0.1 to 0.5 µM | – | CO[C@H]1CC[C@@H]1NC(=O)c1cnn2c(N)cc(-c3cnc4n([C@@H]5COC[C@H]5OC)cccc3-4)nc12 [Compound I-1010] |
| < 0.1 µM | – | CNc1cc(Nc2cccn([C@H]3CCC[C@H](OC)C3)c2=O)nc2c(C(=O)N[C@H]3CC[C@@H]3F)cnn12 [Compound I-231] |
| < 0.1 µM | – | CNc1cc(Nc2cccn([C@@H]3CCCOC3)c2=O)nc2c(C(=O)NC3CC[C@@H]3F)cnn12 (stereo partly drawn) [Compound I-194] |
| < 0.1 µM | – | CNc1cc(Nc2cccn([C@H]3CC[C@H]3O)c2=O)nc2c(C(=O)NC3CCC3(F)F)cnn12 (stereo partly drawn) [Compound I-286] |
| – | < 0.1 µM | CNc1cc(-c2cn([C@@H]3CCOC[C@H]3F)c3ncccc23)nc2c(C(=O)NC3CC[C@H]3O)cnn12 (stereo partly drawn) [Compound I-592, 5-(1-((3S,4R)-3-Fluorotetrahydro-2H-pyran-4-yl)-1H-pyrrolo[2,3-b]pyridin-3-yl)-N-((cis-1,2)-2-hydroxycyclobutyl)-7-(methylamino)pyrazolo[1,5-a]pyrimidine-3-carboxamide] |
| < 0.1 µM | – | CNc1cc(-c2cn([C@@H]3CN(C)C[C@H]3F)c3ncccc23)nc2c(C(=O)N[C@H]3CC[C@@H]3OC)cnn12 [Compound I-643] |
| < 0.1 µM | – | CNc1cc(-c2cn([C@H]3CCC[C@H]3F)c3ncccc23)nc2c(C(=O)N[C@H]3COC[C@H]3O)cnn12 [Compound I-722] |
| < 0.1 µM | – | CNc1cc(-c2cnc3n([C@H]4COC[C@@H]4OC)cccc2-3)nc2c(C(=O)N[C@H]3CC[C@@H]3F)cnn12 [Compound I-833] |
| < 0.1 µM | – | CNc1cc(Nc2cccn([C@H]3C[C@H](F)C3)c2=O)nc2c(C(=O)N[C@@H]3CCC3(F)F)cnn12 [Compound I-285] |
| – | < 0.1 µM | CNc1cc(-c2cn([C@H]3CCOC[C@H]3OC)c3ncccc23)nc2c(C(=O)NC3CC[C@@H]3OC)cnn12 (stereo partly drawn) [Compound I-665, N-((trans-1,2)-2-Methoxycyclobutyl)-5-(1-((3S,4S)-3-methoxytetrahydro-2H-pyran-4-yl)-1H-pyrrolo[2,3-b]pyridin-3-yl)-7-(methylamino)pyrazolo[1,5-a]pyrimidine-3-carboxamide] |

| IC50 | IC50 (0.5 h) | Structure (SMILES) |
| --- | --- | --- |
| < 0.1 µM | – | CNc1cc(Nc2cccn([C@H]3CC[C@H]3O)c2=O)nc2c(C(=O)NC3CC[C@@H]3F)cnn12 (stereo partly drawn) [Compound I-167] |
| < 0.1 µM | – | CNc1cc(Nc2cccn([C@H]3C[C@H](OC)C3)c2=O)nc2c(C(=O)NC3CCC3(F)F)cnn12 (stereo partly drawn) [Compound I-292] |
| < 0.1 µM | – | CNc1cc(-c2cn([C@@H]3CCN(C)C3)c3ncccc23)nc2c(C(=O)NC3CC[C@@H]3OC)cnn12 (stereo partly drawn) [Compound I-615] |
| < 0.1 µM | – | CNc1cc(-c2cn([C@H]3C[C@@H](COC)C3)c3ncccc23)nc2c(C(=O)N[C@@H]3CC[C@@H]3O)cnn12 [Compound I-914] |
| < 0.1 µM | – | CNc1cc(Nc2cccn([C@H]3[C@@H]4COC[C@@H]43)c2=O)nc2c(C(=O)NC3CC[C@@H]3F)cnn12 (stereo partly drawn) [Compound I-206] |
| < 0.1 µM | – | CNc1cc(-c2cn([C@H]3CCOC[C@@H]3OC)c3ncccc23)nc2c(C(=O)N[C@H]3CC[C@@H]3OC)cnn12 [Compound I-663] |
| < 0.1 µM | – | CNc1cc(Nc2cccn([C@@H]3CCC[C@@H]3O)c2=O)nc2c(C(=O)NC3CCC3(F)F)cnn12 (stereo partly drawn) [Compound I-303] |
| < 0.1 µM | – | CNc1cc(-c2cnc3n([C@H]4COC[C@@H]4O)cccc2-3)nc2c(C(=O)N[C@H]3CC[C@@H]3F)cnn12 [Compound I-828] |
| < 0.1 µM | – | CNc1cc(Nc2cccn(-c3ccccn3)c2=O)nc2c(C(=O)N[C@@H]3CCC3(F)F)cnn12 [Compound I-320] |
| > 1 µM | – | CNc1cc(-c2cnc3n(CC(=O)N4CCC4)cccc2-3)nc2c(C(=O)N[C@H]3CC[C@@H]3OC)cnn12 [Compound I-977] |
| < 0.1 µM | – | CNc1cc(Nc2cccn([C@H]3[C@@H]4COC[C@@H]43)c2=O)nc2c(C(=O)NC3CCC3(F)F)cnn12 (stereo partly drawn) [Compound I-306] |
| < 0.1 µM | – | CNc1ccc(-c2cc(NC)n3ncc(C(=O)N[C@H]4CC[C@@H]4F)c3n2)n2ccnc12 [Compound I-481] |
| < 0.1 µM | – | CNc1cc(Nc2cccn([C@H]3CC[C@H]3O)c2=O)nc2c(C(=O)N[C@@H]3CC[C@H]3F)cnn12 [Compound I-169] |
| < 0.1 µM | – | CNc1cc(-c2cn([C@@H]3CN(C)C[C@H]3OC)c3ncccc23)nc2c(C(=O)NC3CC[C@@H]3OC)cnn12 (stereo partly drawn) [Compound I-645] |
| 0.1 to 0.5 µM | – | CNc1cc(-c2cn([C@@H]3CCOC[C@@H]3F)c3ncccc23)nc2c(C(=O)NC3CC[C@H]3O)cnn12 (stereo partly drawn) [Compound I-588] |
| < 0.1 µM | – | CNc1cc(Nc2cccn([C@H]3C[C@@H](OC)C3)c2=O)nc2c(C(=O)NC3CC[C@@H]3F)cnn12 (mixture of isomers) [Compound I-173] |
| < 0.1 µM | – | CNc1cc(Nc2cccn(C3CCOCC3)c2=O)nc2c(C(=O)N[C@@H]3CC[C@@H]3F)cnn12 [Compound I-193] |
| < 0.1 µM | – | CNc1cc(Nc2cccn(C3CCOCC3)c2=O)nc2c(C(=O)N[C@H]3CC[C@]3(C)OC)cnn12 [Compound I-407] |
| < 0.1 µM | – | CNc1cc(Nc2cccn(-c3ccccn3)c2=O)nc2c(C(=O)NC3CC[C@@H]3F)cnn12 (stereo partly drawn) [Compound I-200] |
| < 0.1 µM | – | CNc1cc(-c2cn(C3COC3)c3ncccc23)nc2c(C(=O)N[C@H]3CC[C@@H]3O)cnn12 [Compound I-558] |
| < 0.1 µM | – | CNc1cc(-c2cn([C@H]3C[C@@H](COC)C3)c3ncccc23)nc2c(C(=O)NC3CC[C@H]3O)cnn12 (stereo partly drawn) [Compound I-912] |
| < 0.1 µM | – | CNc1cc(-c2cnc3n([C@@H]4CCOC[C@H]4O)cccc2-3)nc2c(C(=O)N[C@H]3CC[C@@H]3F)cnn12 [Compound I-848] |
| – | 0.1 to 0.5 µM | CNc1cc(-c2cn(CC(=O)N(C)C)c3ncccc23)nc2c(C(=O)NC3CC[C@@H]3OC)cnn12 (stereo in doubt) [Compound I-920, 5-(1-(2-(dimethylamino)-2-oxoethyl)-1H-pyrrolo[2,3-b]pyridin-3-yl)-N-(2-methoxycyclobutyl)-7-(methylamino)pyrazolo[1,5-a]pyrimidine-3-carboxamide] |
| < 0.1 µM | – | CNc1cc(Nc2cccn([C@@H]3CCC[C@H](C#N)C3)c2=O)nc2c(C(=O)NC3CCC3(F)F)cnn12 (stereo partly drawn) [Compound I-327] |
| < 0.1 µM | – | CNc1cc(-c2cn([C@@H]3COC[C@H]3OC)c3ncccc23)nc2c(C(=O)NC3CC[C@@H]3OC)cnn12 (stereo partly drawn) [Compound I-636] |
